Data reported in patent publication US8586609B2, “Aryl-substituted polycyclic amines, method for the production thereof, and use thereof as a medicament” (Sanofi-Aventis Deutschland GmbH, priority 2004, dated 2013).

Test system: female NMRI mice
Experiment: Anorectic effect: reduction in cumulative milk consumption of treated compared with control animals
Type: in vivo
Conditions: oral dose 30 mg/kg by gavage; female NMRI mice after withdrawal of feed for 17 hours; condensed milk consumption determined every half hour for 7 hours
Method: The anorectic effect was tested on female NMRI mice. After withdrawal of feed for 17 hours, the test product was administered by gavage. The animals were housed singly with free access to drinking water and were offered condensed milk 30 minutes after administration of the product. The condensed milk consumption was determined every half hour for 7 hours, and the general wellbeing of the animals was observed. The measured milk consumption was compared with the vehicle-treated control animals.

CN1C[C@H]2CCN(c3ccc(NC(=O)N4CCC(c5ccc(Cl)cc5)CC4)cc3)[C@H]2C1 (stereo in doubt) [Example 9, 4-(4-Chlorophenyl)piperidine-1-carboxylic acid [4-(5-methylhexahydropyrrolo[3,4-b]pyrrol-1-yl)phenyl]amide]
Reduction in cumulative milk consumption as % of the control: 82 % of the control
